Measurements as given in patent US11371097B2, “Articles for diagnosis of liver fibrosis” (THE GOVERNMENT OF THE UNITED STATES, as represented by THE …, priority 2015, dated 2022).
Several values for one entry are separate records, joined by “and”; a condition that tells them apart may be missing. Equal values may be shown once.

Columns and labels:
[1] = tested on: liver; format: in vivo, Male Sprague-Dawley rats
[2] = format: in vivo, Male Sprague-Dawley rats; conditions: rat, in vivo
[3] = tested on: 67 genes on the fibrosis gene panel; test: Multiplexed fibrosis gene panel (QuantiGene 2.0 Plex / Bioplex) on liver RNA; conditions: liver RNA, individual animals; Carbon Tetrachloride 200, Bromobenzene 785, Dexamethasone 1 mg/kg
Method: mRNA is isolated and purified from lysed tissue biopsy specimens. The target mRNA is incubated with beads conjugated to capture probes (each probe is an oligonucleotides specific for one of the genes in the panel). The target is hybridized to the probe by a capture extender-capture probe interaction. Specific mRNA targets hybridize overnight to the respective beads. The signal is amplified by incubating mRNA-capture probe pairs by affixing an amplifier affixed to a biotinylated label probe. Streptavidin-conjugated phycoerythrin (SAPE) is bound to the biotinylated probe to amplify the signal. The signal is detected and quantified by Bioplex suspension array instrumentation, which measures the SAPE fluorescence signal proportional to the amount of mRNA transcripts captured by the bead.
Candidate genes identified by co-expression modules and pathway/network approaches were fabricated into a custom gene panel using a commercial source (the QuantiGene 2.0 Plex assay, Affymetrix, Santa Clara, Calif.). A total of 71 genes plus 3 housekeeping genes were selected. Using 150 ng RNA input, samples were processed following manufacturer's instructions for purified RNA with use of the HandHeld Magnetic Plate Washer. Plates were read immediately following the final wash using the BioPlex 200 instrument (BioRad, Hercules, Calif.). The following parameters were set on the BioPlex instrument: sample size=100 μL; DD Gate=5,000-25,000; Timeout=45 sec; Bead Event/Bead Region=100.
For each sample, the average signal intensity was determined as recommended by the manufacturer. Duplicates were averaged. The average background signal for each gene was subtracted. Assay limit of detection was determined by adding three standard deviations of assay background signals to the average intensity of the background control wells. All intensities lower than the limit of detection for each probe was set to one unit above the probe's limit of detection. Probes with all intensities below the assay limit of detection were removed from the final analysis. The test gene signal was divided by the average intensities of the three normalization genes (Gapdh, Hprt1, Ppib). For each test gene, the fold change was calculated by dividing the normalized value for the treated samples by the normalized value of the vehicle-treated controls. Fold changes were plotted as log2 fold change. Gene expression data were imported into Partek Genomics Suite 6.0 (Partek, Inc., St. Louis, Mo.). Principal component analysis was used for multivariate interpretation to determine sources of variation across sample groups (Joliffe I T, Morgan B J. Principal component analysis and exploratory factor analysis. Statistical methods in medical research 1992; 1(1):69-95). Differentially expressed genes were determined by analysis of variance (ANOVA) with contrasts, setting the ANOVA factors as toxicant and the histopathological endpoint of fibrosis (any score >0). ANOVA variables were fibrosis score 0 (none) vs. score of >0 (minimal, mild, moderate, and marked). For hierarchical biclustering, differentially expressed genes were standardized by setting the genes expressed to a mean of zero and scaling to a standard deviation of one. Euclidean geometry was used to cluster row and column dissimilarity using a method of average linkage.
Chemical-dose groups were down-selected based on histopathology to conform to the 96-well assay format of the multiplexed panel of presumptive fibrosis genes. Three of the four dose groups were evaluated for the fibrogenic chemicals allyl alcohol and 4,4′-methylenedianiline. A single dose was selected with group-matched vehicle controls for each of the remaining chemicals. […] The highest dose of bromobenzene was selected because the vacuolation pathology was only observed at this dose.
Isolated liver RNA was incubated with microbead-bound capture probes specific for the 71 presumptive fibrogenic genes and three housekeeping normalization genes.

## C[C@@H]1C[C@H]2[C@@H]3CCC4=CC(=O)C=C[C@]4(C)[C@@]3(F)[C@@H](O)C[C@]2(C)[C@@]1(O)C(=O)CO [dexamethasone]
[1]; highest dose (300 mg/kg)
  Tissue necrosis: moderate tissue necrosis affecting >60-80% of the tissue in two animals
[1]; rat, in vivo
  Combined histopathological scores as percent of animals with pathology: dose-dependent increase in severe pathology
  Cytoplasmic Alteration: marked cytoplasmic alteration characteristic of glycogen accumulation
  Histopathological evidence of vacuolation and/or glycogen accumulation: correlated with histopathological evidence of vacuolation and/or glyocgen accumulation
[2]
  Body weight change: Body weight loss occurred at all doses
  Body weight gain over the five experimental dosing days: decrease in body weight gain
[3]
  Differential Expression of A2m: −1.370 and −0.649 and −0.615 and −0.252
  Differential Expression of Angptl3: 0.029 and −0.467 and −0.241
  Differential Expression of Anxa2: 0.519 and 0.194 and −0.132 and 0.293
  Differential Expression of Apoc: −0.250 and −0.067 and −0.469 and −0.542
  Differential Expression of Arf6: −0.268 and −0.346 and −0.401 and 0.005
  Differential Expression of Arpc1b: −1.391 and −2.770 and −5.994 and −0.172
  Differential Expression of Arrb1: −0.840 and −2.152 and −3.043 and 0.703
  Differential Expression of C1qb: −0.174 and −0.655 and −0.257 and −0.222
  Differential Expression of CD9: 0.155 and −0.656 and −0.280 and 0.387
  Differential Expression of CD53: −0.716 and −3.901 and −5.862 and 0.006
  Differential Expression of CP: −0.134 and −0.634 and −0.952 and −0.558
  Differential Expression of Capg: −0.558 and −0.744 and −0.772 and −0.404
  Differential Expression of Ccl2: −0.272 and 0.250 and 0.043 and 1.019
  Differential Expression of Col1a1: −4.640 and −3.775 and −5.473 and −0.928
  Differential Expression of Col1a2: −0.960 and −1.057 and −2.208 and −1.081
  Differential Expression of Col4a1: −1.039 and −1.035 and −1.397 and −0.880
  Differential Expression of Col5a2: −0.407 and −0.910 and −2.382 and 0.311
  Differential Expression of Ctgf: −0.755 and 0.747 and −0.663 and 0.405
  Differential Expression of Cxcl1: 0.104 and 1.127 and 0.364 and 0.097
  Differential Expression of Cxcl12: −1.808 and −3.742 and −2.144 and −1.869
  Differential Expression of Cxcl16: −0.537 and −4.885 and 0.714
  Differential Expression of Cyba: −0.998 and −1.793 and −1.244 and −0.956
  Differential Expression of Dsc2: −0.209 and −0.593 and −0.466 and −0.248
  Differential Expression of Fam102b: −0.462 and −0.124 and −0.822 and −0.262
  Differential Expression of Fam105a: −0.295 and 0.195 and −0.809 and −0.294
  Differential Expression of Fbn1: −1.213 and −1.784 and −2.160 and −1.736
  Differential Expression of Fn1: 0.397 and 0.181 and −0.334 and −0.170
  Differential Expression of Fstl1: −1.085 and −1.346 and −1.183 and −0.931
  Differential Expression of Fxyd5: −0.247 and −0.412 and −0.305
  Differential Expression of Gpnmb: −0.018 and 1.304 and 0.968 and 1.447
  Differential Expression of Igfals: −0.678 and −2.820 and −1.013 and −1.310
  Differential Expression of Igfbp1: 1.132 and 1.740 and 0.780 and 0.489
  Differential Expression of Igfbp2: −0.258 and −0.949 and −1.156 and −0.041
  Differential Expression of Igfbp3: −1.125 and −1.454 and −2.523 and −1.663
  Differential Expression of Itga1: −2.088 and −3.379 and −2.849 and −1.903
  Differential Expression of Itgb2: −1.330 and −2.265 and −1.982 and −0.802
  Differential Expression of Lame2: −0.132 and 0.260 and −1.038 and 0.536
  Differential Expression of Lbp: 0.344 and −0.042 and 0.261 and −0.020
  Differential Expression of Len2: −0.470 and 0.418 and 0.883 and 0.535
  Differential Expression of Lgals1: 0.458 and −4.140 and −0.346 and 0.583
  Differential Expression of Lgals3: 0.011 and 0.320 and 0.370 and 0.526
  Differential Expression of Lgals3bp: −1.477 and −0.782 and −1.281 and −0.669
  Differential Expression of Lox: 0.278 and 0.412 and −0.164
  Differential Expression of Lrp1: −0.206 and −0.631 and −0.863 and −0.371
  Differential Expression of Lum: 0.593 and 0.401 and −0.997 and −0.078
  Differential Expression of Mmp2: −0.245 and −1.273 and −0.990 and −0.583
  Differential Expression of Nid1: −1.271 (2×) and −1.374 and −1.155
  Differential Expression of Pcolce: −1.293 and −1.196 and −1.572 and −0.246
  Differential Expression of Pkm2: −0.668 and −0.611 and −0.735 and −0.472
  Differential Expression of Plat: 0.103 and 0.075 and −0.461 and −0.335
  Differential Expression of Plau: −0.719 and −2.088 and −1.424 and −0.095
  Differential Expression of Plod2: −0.065 and 0.269 and −0.568 and −0.077
  Differential Expression of RT1-DMa: 3.152 and 2.497 and 3.371 and 2.417
  Differential Expression of RT1-Da: −4.927 and −7.563 and −4.272 and −3.443
  Differential Expression of S100A6: 0.650 and −0.047 and 0.843 and 0.695
  Differential Expression of S100A11: −0.377 and −0.570 and −0.732 and −0.465
  Differential Expression of Serpine1: 0.251 and 1.560 and 0.110 and 0.038
  Differential Expression of Serping1: 0.154 and 0.026 and −0.228 and 0.065
  Differential Expression of Slc25a24: −0.387 and −0.565 and −0.427
  Differential Expression of Sod2: −0.398 and −0.428 and −0.371 and −0.367
  Differential Expression of TagIn2: −0.486 and −0.918 and −0.563 and −0.566
  Differential Expression of Tgfb1: −1.193 and −1.526 and −1.328 and −1.429
  Differential Expression of Timp1: 0.026 and 0.464 and −0.134 and 1.004
  Differential Expression of Vhl: −0.300 and −1.037 and −0.787 and 0.504
  Differential Expression of Vim: −0.856 and −1.292 and −1.277
  Differential Expression of Vtn: −0.111 and −0.294 and −0.579 and −0.572
